Laboratory results taken from patent US5066676A, “Sulfonamido derivative inhibiting the aldose reductase enzyme system and pharmaceutical compositions containing them” (Laboratori Baldacci SpA, priority 1987, dated 1991).

Columns and labels:
aldose reductase = biological target: T1, aldose reductase (Bos taurus, UniProt P16116); experiment: In vitro inhibition of aldose reductase activity of raw extracts from bovine crystalline lens; assay type: biochemical; details: glyceraldehyde substrate, NADPH, pH 6.8, 37° C.; read-out: IC50 on the aldose reductase activity of raw extracts originating from bovine crystalline lens
T1 construct: 4 bovine crystalline lenses (8 g) are homogenized by means of Potter in ice bath; from tissue; host or cells: bovine crystalline lens
Procedure: "In vitro" tests have been carried out to evalute the inhibition of the aldose reductase activity, prepared from the extract of bovine crystalline lenses.
PREPARATION OF THE RAW EXTRACTS
4 bovine crystalline lenses (8 g) are homogenized by means of Potter in ice bath with 40 ml of 50 mM phosphate buffer, pH 6.8, containing 2-mercaptoethanol pH ([…]). After centrifugation (12.000×g -20 min-4° C.) the supernatant is brought to 40% saturation with an ammonium sulphate and centrifugated again (14.000×g). The supernatant is then brought to the 80% saturation ((NH4)2 SO4) and, after centrifugation for 20 minutes and at 14.000×g, the sedimented matter is recovered and suspended in 7 ml of phosphate buffer. The enzymatic preparation is dialyzed by ultrafiltration with AMICON ultrafiltration cell.
DOSAGE OF THE ENZYMATIC ACTIVITY
The reference cuvette contains all the several substances apart from the substrate.

[1] = Acute toxicity of ARI 6 in the mouse; details: in vivo
rat = experiment: Toxicity per oral administration repeated in the rat (30 days); assay type: in vivo; details: 30 days, 100, 200, 300 mg/kg/die
Source text: Toxicity per oral administration repeated in the rat (30 days)--Test protocol:
Compound Doses mg/kg/die

[2] = system: galactosemic cataract in the rat; experiment: Action on the appearance of the galactosemic cataract (rat); assay type: in vivo; design: appearance of the galactosemic cataract: unit not given here
Procedure: (§1) With the compound bearing the abbreviation ARI 6 the following tests have been carried out in the rat and in the rabbit.
Action on the appearance of the galactosemic cataract (rat)
Effects of the administration of ARI-6 (5 and 25 mg/kg/die, os)
on the appearance of the galactosemic cataract in the rat.
[…] In the brackets the number of animals for each group is indicated.
The diet contains D-galactose 50%.
Effects of the administration of ARI-1 (5 and 25 mg/kg/die, os)

[3] = Acute toxicity of ARI 6 in the rat; details: in vivo
[4] = system: diabetic cataract in the rat; experiment: Action on the appearance of the diabetic cataract (rat); assay type: in vivo; details: for appearance of the diabetic cataract: Table 5, 25 mg/kg/die per os
Procedure: as §1
Action on the appearance of the diabetic cataract (rat).
Effects of the administration of ARI 6 (25 mg/kg/die, per os)
on the appearance of the diabetic cataract in the rat.
The values are expressed as percentages. Within brackets there are indicated the animals for each group.
Effects of the administration of ARI-1 (25 mg/kg/die, per os)

**Q.** For `CN(CC(=O)O)S(=O)(=O)c1ccc2oc3ccc(Cl)cc3c(=O)c2c1` [ARI 6, 7-chloro-2 (N-methyl-N-carboxymethyl) sulfamoylxanthone], which IC50 (aldose reductase) is on record?
**A.** Its IC50 is 9.2 µM.

**Q.** And the LD50 ([1]; ip, read-out: Acute toxicity in the mouse ip)?
**A.** Its LD50 is 1000 mg/kg.

**Q.** What about the LD50 ([1]; po, per os, read-out: Acute toxicity in the mouse per os) of the same compound?
**A.** The LD50 was 1000 mg/kg.

**Q.** And the “Microscope and hystomorphological examination” value (rat)?
**A.** Its value is “no alteration”.

**Q.** What about the death (rat) of the same compound?
**A.** Its death is “No death”.

**Q.** What about the “Behaviour and general status” value (rat; vs control group) of the same compound?
**A.** The value was “no variation with respect to the control group”.

**Q.** What about the “Biochemical and hematological parameters” value (rat; vs controls) of the same compound?
**A.** Its value is “no significant variation with respect to the controls”.

**Q.** And the “appearance of the galactosemic cataract” value ([2]; Table 4, 5 mg/kg/die os, day 5 of diet)?
**A.** Its value is 0.0.

**Q.** What about the “appearance of the galactosemic cataract” value ([2]; Table 4, 5 mg/kg/die os, day 10 of diet) of the same compound?
**A.** Its value is 0.0.

**Q.** What about the “appearance of the galactosemic cataract” value ([2]; Table 4, 5 mg/kg/die os, day 15 of diet) of the same compound?
**A.** Its value is 0.0.

**Q.** What about the “appearance of the galactosemic cataract” value ([2]; Table 4, 5 mg/kg/die os, day 20 of diet) of the same compound?
**A.** The value was 0.0.

**Q.** And the “appearance of the galactosemic cataract” value ([2]; Table 4, 5 mg/kg/die os, day 25 of diet)?
**A.** Its value is 15.0.

**Q.** And the “appearance of the galactosemic cataract” value ([2]; Table 4, 5 mg/kg/die os, day 30 of diet)?
**A.** The value was 20.0.

**Q.** And the “appearance of the galactosemic cataract” value ([2]; Table 4, 5 mg/kg/die os, day 35 of diet)?
**A.** The value was 40.0.

**Q.** What about the “appearance of the galactosemic cataract” value ([2]; Table 4, 5 mg/kg/die os, day 40 of diet) of the same compound?
**A.** Its value is 100.0.

**Q.** And the “appearance of the galactosemic cataract” value ([2]; Table 4, 5 mg/kg/die os, day 45 of diet)?
**A.** The value was 100.0.

**Q.** And the “appearance of the galactosemic cataract” value ([2]; Table 4, 5 mg/kg/die os, day 50 of diet)?
**A.** The value was 100.0.

**Q.** And the “appearance of the galactosemic cataract” value ([2]; Table 4, 25 mg/kg/die os, day 5 of diet)?
**A.** The value was 0.0.

**Q.** What about the “appearance of the galactosemic cataract” value ([2]; Table 4, 25 mg/kg/die os, day 10 of diet) of the same compound?
**A.** The value was 0.0.

**Q.** And the “appearance of the galactosemic cataract” value ([2]; Table 4, 25 mg/kg/die os, day 15 of diet)?
**A.** The value was 0.0.

**Q.** And the “appearance of the galactosemic cataract” value ([2]; Table 4, 25 mg/kg/die os, day 20 of diet)?
**A.** The value was 0.0.

**Q.** And the “appearance of the galactosemic cataract” value ([2]; Table 4, 25 mg/kg/die os, day 25 of diet)?
**A.** The value was 0.0.

**Q.** And the “appearance of the galactosemic cataract” value ([2]; Table 4, 25 mg/kg/die os, day 30 of diet)?
**A.** Its value is 0.0.

**Q.** And the “appearance of the galactosemic cataract” value ([2]; Table 4, 25 mg/kg/die os, day 35 of diet)?
**A.** Its value is 0.0.

**Q.** And the “appearance of the galactosemic cataract” value ([2]; Table 4, 25 mg/kg/die os, day 40 of diet)?
**A.** Its value is 15.0.

**Q.** And the “appearance of the galactosemic cataract” value ([2]; Table 4, 25 mg/kg/die os, day 45 of diet)?
**A.** Its value is 25.0.

**Q.** What about the “appearance of the galactosemic cataract” value ([2]; Table 4, 25 mg/kg/die os, day 50 of diet) of the same compound?
**A.** Its value is 100.0.

**Q.** And the “delay for the appearance of the galactosemic cataract” value ([2]; rat, 5 mg/kg, vs controls)?
**A.** The value was “about 20 days”.

**Q.** What about the “effect on appearance of the galactosemic cataract (in words)” value ([2]; rat, higher doses) of the same compound?
**A.** The value was “A more intense effect”.

**Q.** And the LD50 ([3]; ip, read-out: Acute toxicity in the rat ip)?
**A.** Its LD50 is 1000 mg/kg.

**Q.** And the LD50 ([3]; po, per os, read-out: Acute toxicity in the rat per os)?
**A.** The LD50 was 1000 mg/kg.

**Q.** What about the “appearance of the diabetic cataract” value ([4]; day 5 from streptozotocine) of the same compound?
**A.** Its value is 0.0%.

**Q.** And the “appearance of the diabetic cataract” value ([4]; day 10 from streptozotocine)?
**A.** Its value is 0.0%.

**Q.** And the “appearance of the diabetic cataract” value ([4]; day 15 from streptozotocine)?
**A.** Its value is 0.0%.

**Q.** And the “appearance of the diabetic cataract” value ([4]; day 20 from streptozotocine)?
**A.** The value was 0.0%.

**Q.** And the “appearance of the diabetic cataract” value ([4]; day 25 from streptozotocine)?
**A.** Its value is 0.0%.

**Q.** And the “appearance of the diabetic cataract” value ([4]; day 30 from streptozotocine)?
**A.** Its value is 0.0%.

**Q.** What about the “appearance of the diabetic cataract” value ([4]; day 35 from streptozotocine) of the same compound?
**A.** The value was 0.0%.

**Q.** And the “appearance of the diabetic cataract” value ([4]; day 40 from streptozotocine)?
**A.** The value was 20.0%.

**Q.** And the “appearance of the diabetic cataract” value ([4]; day 45 from streptozotocine)?
**A.** The value was 30.0%.

**Q.** And the “appearance of the diabetic cataract” value ([4]; day 50 from streptozotocine)?
**A.** The value was 100.0%.

**Q.** What about the “delay of the appearance of the diabetic cataract” value ([4]; rat, 25 mg/kg, vs controls) of the same compound?
**A.** Its value is “about 30 days”.
